# Test results as given in patent publication US12091399B2, “Phenyltetrazole derivatives as plasma kallikrein inhibitors” (Boehringer Ingelheim International GmbH, priority 2018, dated 2024).
# Molecular target: Human PKK (Homo sapiens (Human), UniProt P03952)
# Experiment: Inhibition of PKK using an endpoint assay (human PKK)
# Assay type: biochemical
# Settings: 1 h at rt, 0.10 μM H-Pro-Phe-Arg-AMC
# Protocol: The ability of compounds of formula (I) to inhibit plasma kallikrein (PKK), Factor XIIa (FXIIa), Factor XIa (FXIa), Factor Xa (FXa), Factor IIa (alpha-thrombin; FIIa), plasmin, trypsin, tissue kallikrein 1 (TK1), Factor Vila (FVIIa), or FVIIa complexed with Tissue Factor, phospholipids and CaCl2) (FVIIa/TF/PL/CaCl2) was determined using the following biochemical assays in assay buffer (100 mM Tris, 150 mM NaCL, adjusted to a pH of 7.8 with HCl, and containing 0.1% (w/v) BSA and 0.05% (v/v) Tween20) in the presence of 1% (v/v) DMSO:
# Subsequently, PPACK II (Calbiochem) was added as a stop solution to achieve a final concentration of 1 μM and fluorescence was measured using an Envision Reader (PerkinElmer) with the wavelength excitation setting of 355 nm and the wavelength emission setting of 460 nm. The number of the compound corresponds to the number of the Example in the experimental section.
# Chain of Human PKK (P03952 391-638): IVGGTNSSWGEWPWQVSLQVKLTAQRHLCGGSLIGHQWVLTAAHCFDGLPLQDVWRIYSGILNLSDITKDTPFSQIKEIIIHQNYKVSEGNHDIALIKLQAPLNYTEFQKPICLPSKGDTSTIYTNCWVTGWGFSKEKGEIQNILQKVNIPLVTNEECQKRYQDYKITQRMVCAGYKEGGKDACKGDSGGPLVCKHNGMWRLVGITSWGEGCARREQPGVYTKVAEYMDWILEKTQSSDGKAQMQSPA
# Chain of Human PKK (P03952 20-390 partner): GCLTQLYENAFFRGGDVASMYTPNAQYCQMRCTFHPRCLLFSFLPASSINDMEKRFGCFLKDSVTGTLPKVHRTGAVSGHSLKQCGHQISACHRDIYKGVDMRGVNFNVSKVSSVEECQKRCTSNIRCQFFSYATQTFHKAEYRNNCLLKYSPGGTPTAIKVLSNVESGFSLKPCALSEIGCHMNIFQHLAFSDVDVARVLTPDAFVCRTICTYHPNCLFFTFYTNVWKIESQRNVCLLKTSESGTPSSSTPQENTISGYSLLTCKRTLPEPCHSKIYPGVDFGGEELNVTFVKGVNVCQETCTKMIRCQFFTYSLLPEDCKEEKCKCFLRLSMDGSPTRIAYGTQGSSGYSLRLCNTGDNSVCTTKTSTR
row,Structure (SMILES),IC50
1,Cc1nc(N2CC3(CC3)C2)ncc1Cn1cc(C(=O)NCc2c(-n3cnnn3)ccc(Cl)c2F)c(C)n1 [Example 38],0.7 nM
2,Cc1nc(N2CC3(CC3)C2)ncc1Cn1cc(C(=O)NCc2cc(Cl)ccc2-n2cnnn2)cn1 [Example 39],3 nM
3,Cc1nc(N2CC3(CC3)C2)ncc1Cn1cc(C(=O)NCc2c(-n3cnnn3)ccc(Cl)c2F)cn1 [Example 40],0.5 nM
4,COCc1nn(Cc2cnc(N3CC4(CC4)C3)nc2C)cc1C(=O)NCc1cc(Cl)ccc1-n1cnnn1 [Example 41],6 nM
5,Cc1nc(N2CC3CC3C2)ccc1Cn1cc(C(=O)NCc2c(-n3cnnn3)ccc(Cl)c2F)c(-c2cnn(C)c2)n1 (centres unmarked) [Example 43],0.4 nM
6,Cc1nc(N2CC3CC3C2)ccc1Cn1cc(C(=O)NCc2cc(Cl)ccc2-n2cnnn2)c2cccnc21 (centres unmarked) [Example 50],9 nM
7,O=C(NCc1cc(Cl)ccc1-n1cnnn1)c1cnn(Cc2cnc(N3CC4C(C3)C4(F)F)c(Br)c2)c1 (centres unmarked) [Example 51],2 nM
8,Cc1nc(N2CC3(CC3)C2)ccc1Cn1cc(C(=O)NCc2c(-n3cnnn3)ccc(Cl)c2F)cn1 [Example 53],0.2 nM
9,COC[C@H]1[C@H]2CN(c3ccc(Cn4cc(C(=O)NCc5cc(Cl)ccc5-n5cnnn5)cn4)c(C)n3)C[C@@H]12 [Example 55],3 nM
10,Cc1nc(N2C[C@@H]3[C@@H](O)[C@@H]3C2)ccc1Cn1cc(C(=O)NCc2cc(Cl)ccc2-n2cnnn2)cn1 [Example 56],6 nM
11,Cc1nc(N2CC3(CC3)C2)ncc1Cn1cc(C(=O)NCc2cc(Cl)ccc2-n2cnnn2)c2cncnc21 [Example 57],5 nM
12,"Cc1nc(N2CCC3(COC3)C2)ccc1Cn1cc(C(=O)NCc2cc(Cl)ccc2-n2cnnn2)cn1 [Example 61, N-{[5-chloro-2-(1H-1,2,3,4-tetrazol-1-yl)phenyl]methyl}-1-[(2-methyl-6-{2-oxa-6-azaspiro[3.4]octan-6-yl}pyridin-3-yl)methyl]-1H-pyrazole-4-carboxamide]",12 nM
13,"Cc1nc(N2C[C@@H]3CNC(=O)[C@@H]3C2)ccc1Cn1cc(C(=O)NCc2cc(Cl)ccc2-n2cnnn2)cn1 [Example 62, 1-({6-[(3aS,6aS)-4-oxo-octahydropyrrolo[3,4-c]pyrrol-2-yl]-2-methylpyridin-3-yl}methyl)-N-{[5-chloro-2-(1H-1,2,3,4-tetrazol-1-yl)phenyl]methyl}-1H-pyrazole-4-carboxamide]",3 nM
14,"Cc1nc(N2CC3(CC(O)C3)C2)ccc1Cn1cc(C(=O)NCc2cc(Cl)ccc2-n2cnnn2)cn1 [Example 64, N-{[5-chloro-2-(1H-1,2,3,4-tetrazol-1-yl)phenyl]methyl}-1-[(6-{6-hydroxy-2-azaspiro[3.3]heptan-2-yl}-2-methylpyridin-3-yl)methyl]-1H-pyrazole-4-carboxamide]",225 nM
15,"Cc1nc(N2CC3CC(C2)O3)ccc1Cn1cc(C(=O)NCc2cc(Cl)ccc2-n2cnnn2)cn1 [Example 65, N-{[5-chloro-2-(1H-1,2,3,4-tetrazol-1-yl)phenyl]methyl}-1-[(2-methyl-6-{6-oxa-3-azabicyclo[3.1.1]heptan-3-yl}pyridin-3-yl)methyl]-1H-pyrazole-4-carboxamide]",10 nM
16,"Cc1nc(N2CCC3(C2)CC3(F)F)ccc1Cn1cc(C(=O)NCc2cc(Cl)ccc2-n2cnnn2)cn1 (centres unmarked) [Example 66, N-{[5-chloro-2-(1H-1,2,3,4-tetrazol-1-yl)phenyl]methyl}-1-[(6-{1,1-difluoro-5-azaspiro[2.4]heptan-5-yl}-2-methylpyridin-3-yl)methyl]-1H-pyrazole-4-carboxamide]",9 nM

row,Structure (SMILES),IC50
1,"Cc1nc(N2CC3CC2C3)ccc1Cn1cc(C(=O)NCc2cc(Cl)ccc2-n2cnnn2)cn1 [Example 67, 1-[(6-{2-azabicyclo[2.1.1]hexan-2-yl}-2-methylpyridin-3-yl)methyl]-N-{[5-chloro-2-(1H-1,2,3,4-tetrazol-1-yl)phenyl]methyl}-1H-pyrazole-4-carboxamide]",10 nM
2,"Cc1nc(N2CC3CC(C2)C3O)ccc1Cn1cc(C(=O)NCc2cc(Cl)ccc2-n2cnnn2)cn1 (centres unmarked) [Example 68, N-{[5-chloro-2-(1H-1,2,3,4-tetrazol-1-yl)phenyl]methyl}-1-[(6-{6-hydroxy-3-azabicyclo[3.1.1]heptan-3-yl}-2-methylpyridin-3-yl)methyl]-1H-pyrazole-4-carboxamide]",4 nM
3,"Cc1nc(N2CC3(CCCO3)C2)ccc1Cn1cc(C(=O)NCc2cc(Cl)ccc2-n2cnnn2)cn1 [Example 69, N-{[5-chloro-2-(1H-1,2,3,4-tetrazol-1-yl)phenyl]methyl}-1-[(2-methyl-6-{5-oxa-2-azaspiro[3.4]octan-2-yl}pyridin-3-yl)methyl]-1H-pyrazole-4-carboxamide]",5 nM
4,"Cc1nc(N2CC3OCC(N)C3C2)ccc1Cn1cc(C(=O)NCc2cc(Cl)ccc2-n2cnnn2)cn1 (centres unmarked) [Example 70, 1-[(6-{3-amino-hexahydro-2H-furo[2,3-c]pyrrol-5-yl}-2-methylpyridin-3-yl)methyl]-N-{[5-chloro-2-(1H-1,2,3,4-tetrazol-1-yl)phenyl]methyl}-1H-pyrazole-4-carboxamide]",845 nM
5,"Cc1nc(N2CCC3(CCOC3)C2)ccc1Cn1cc(C(=O)NCc2cc(Cl)ccc2-n2cnnn2)cn1 (centres unmarked) [Example 71, N-{[5-chloro-2-(1H-1,2,3,4-tetrazol-1-yl)phenyl]methyl}-1-[(2-methyl-6-{2-oxa-7-azaspiro[4.4]nonan-7-yl}pyridin-3-yl)methyl]-1H-pyrazole-4-carboxamide]",8 nM
6,"Cc1nc(N2CCCC3(CC3)C2)ccc1Cn1cc(C(=O)NCc2cc(Cl)ccc2-n2cnnn2)cn1 [Example 72, 1-[(6-{5-azaspiro[2.5]octan-5-yl}-2-methylpyridin-3-yl)methyl]-N-{[5-chloro-2-(1H-1,2,3,4-tetrazol-1-yl)phenyl]methyl}-1H-pyrazole-4-carboxamide]",74 nM
7,"Cc1nc(N2CC3CCCC3C2)ccc1Cn1cc(C(=O)NCc2cc(Cl)ccc2-n2cnnn2)cn1 (centres unmarked) [Example 73, N-{[5-chloro-2-(1H-1,2,3,4-tetrazol-1-yl)phenyl]methyl}-1-[(2-methyl-6-{octahydrocyclopenta[c]pyrrol-2-yl}pyridin-3-yl)methyl]-1H-pyrazole-4-carboxamide]",9 nM
8,"Cc1nc(N2CC3(CNC(=O)C3)C2)ccc1Cn1cc(C(=O)NCc2cc(Cl)ccc2-n2cnnn2)cn1 [Example 74, N-{[5-chloro-2-(1H-1,2,3,4-tetrazol-1-yl)phenyl]methyl}-1-[(2-methyl-6-{7-oxo-2,6-diazaspiro[3.4]octan-2-yl}pyridin-3-yl)methyl]-1H-pyrazole-4-carboxamide]",232 nM
9,"Cc1nc(N2CC3COCC(C3)C2)ccc1Cn1cc(C(=O)NCc2cc(Cl)ccc2-n2cnnn2)cn1 [Example 75, N-{[5-chloro-2-(1H-1,2,3,4-tetrazol-1-yl)phenyl]methyl}-1-[(2-methyl-6-{3-oxa-7-azabicyclo[3.3.1]nonan-7-yl}pyridin-3-yl)methyl]-1H-pyrazole-4-carboxamide]",7 nM
10,"Cc1nc(N2CCC3(CCCO3)C2)ccc1Cn1cc(C(=O)NCc2cc(Cl)ccc2-n2cnnn2)cn1 (centres unmarked) [Example 76, N-{[5-chloro-2-(1H-1,2,3,4-tetrazol-1-yl)phenyl]methyl}-1-[(2-methyl-6-{1-oxa-7-azaspiro[4.4]nonan-7-yl}pyridin-3-yl)methyl]-1H-pyrazole-4-carboxamide]",3 nM
11,"Cc1nc(N2CC3CC2CO3)ccc1Cn1cc(C(=O)NCc2cc(Cl)ccc2-n2cnnn2)cn1 (centres unmarked) [Example 77, N-{[5-chloro-2-(1H-1,2,3,4-tetrazol-1-yl)phenyl]methyl}-1-[(2-methyl-6-{2-oxa-5-azabicyclo[2.2.1]heptan-5-yl}pyridin-3-yl)methyl]-1H-pyrazole-4-carboxamide]",49 nM
12,"Cc1nc(N2CC3(CCOCC3)C2)ccc1Cn1cc(C(=O)NCc2cc(Cl)ccc2-n2cnnn2)cn1 [Example 78, N-{[5-chloro-2-(1H-1,2,3,4-tetrazol-1-yl)phenyl]methyl}-1-[(2-methyl-6-{7-oxa-2-azaspiro[3.5]nonan-2-yl}pyridin-3-yl)methyl]-1H-pyrazole-4-carboxamide]",19 nM
13,"Cc1nc(N2CC3(C2)CN(C(C)C)C3)ccc1Cn1cc(C(=O)NCc2cc(Cl)ccc2-n2cnnn2)cn1 [Example 79, N-{[5-chloro-2-(1H-1,2,3,4-tetrazol-1-yl)phenyl]methyl}-1-({2-methyl-6-[6-(propan-2-yl)-2,6-diazaspiro[3.3]heptan-2-yl]pyridin-3-yl}methyl)-1H-pyrazole-4-carboxamide]",1060 nM
14,CO[C@H]1[C@@H]2CC[C@H]1CN(c1ccc(Cn3cc(C(=O)NCc4cc(Cl)ccc4-n4cnnn4)cn3)c(C)n1)C2 [Example 80],22 nM
15,"Cc1nc(N2CC3(CCOC3)C2)ccc1Cn1cc(C(=O)NCc2cc(Cl)ccc2-n2cnnn2)cn1 [Example 81, N-{[5-chloro-2-(1H-1,2,3,4-tetrazol-1-yl)phenyl]methyl}-1-[(2-methyl-6-{6-oxa-2-azaspiro[3.4]octan-2-yl}pyridin-3-yl)methyl]-1H-pyrazole-4-carboxamide]",22 nM
16,"Cc1nc(N2CCC3CC32)ccc1Cn1cc(C(=O)NCc2cc(Cl)ccc2-n2cnnn2)cn1 (centres unmarked) [Example 82, 1-[(6-{2-azabicyclo[3.1.0]hexan-2-yl}-2-methylpyridin-3-yl)methyl]-N-{[5-chloro-2-(1H-1,2,3,4-tetrazol-1-yl)phenyl]methyl}-1H-pyrazole-4-carboxamide]",7 nM
